# Columns and labels:
# spleen cells [1] = assay: In vivo treatment of mice: effect on in vitro stimulation of spleen cell proliferation by Con A; set-up: species or system mice (Balb/C); conditions: oral, twice daily for 1 day; for response of spleen cells to Con A versus placebo: Con A 10 μg/ml; for subsequent response of the spleen cells, in vitro, to Con A stimulation: suboptimal Con A 5 μg/ml
# Description: (§1) The purpose of this study was to determine the effects of in vivo treatment of mice with the compounds NPT 15392 and 15410 on the subsequent activity of spleen cells isolated from these animals and evaluated in vitro for their proliferative response to the mitogen, Concanavalin A (Con A).
# Nine male Balb/C mice, 8-9 weeks old, weighing 18-20 gms were divided into three groups. One group was treated twice daily (for 1 day), in the morning and afternoon, with an oral dose of NPT 15392 at 10 mg/kg. The second group was similarly treated with NPT 15410 at 20 mg/kg. A third group, dosed with saline served as a placebo control.
# (§2) The following day, each group was sacrificed and the spleens removed and pooled. The spleens were minced and the cells washed in RPMI-1640 medium (Grand Island Biologicals) supplemental with 2 mm glutamine and antibiotics. The cell concentration of each preparation was determined by a Coulter counter and adjusted to 5×10^6 cells/ml with RPMI medium.
# (§3) Microtiter assays were carried out in 0.2 ml incubations, containing 5×10^5 cells and Con A or Con A and compounds at the indicated concentrations. All assays were performed with 6 replicates and compared with a blank assay containing only cells. The assay plates were incubated at 37° in 5% CO2 for 4 days. During the final 18-20 hours of incubation, 0.5 ml of ^3 HTdR (10 μCi/ml, 6 Ci /m mole) were added to each culture. The cultures were harvested with a multiple automatic sample harvester (MASH) unit and the incorporated ^3 HTdR determined with a Beckman LS 8000 liquid scintillation counter, as a measure of cell proliferation. The results are tabulated as the ratio of the activity in the Con A or Con A and compound treated cultures to the blank cultures.
# spleen cells [2] = assay: In vitro treatment of Con A stimulated spleen cells; assay type: cell-based, mice (Balb/C); conditions: compound 1 μg/ml; suboptimal Con A 5 μg/ml
# From the text: as §1, §2
# as §3, with “cultures. […]” for “cultures.”
# Phase solubility studies = assay type: physicochemical; conditions: constant pH
# From the text: This is indicative of an interaction occuring in solution to yield a complex.
# [3] = test system: human peripheral blood lymphocytes; assay: Mitogen Induced (PHA) Human Lymphocyte Proliferation; assay type: cell-based
# L-1210 cells = assay: Anti-Leukemic Activity (Inhibition of L-1210 Growth); assay type: cell-based, mouse
# Description: Leukemic cells isolated from mice bearing the L-1210 tumor are cultured in vitro and their growth can be measured by counting the number of cells in the culture over a period of time. The incorporation of a test substance into the media will prevent the growth of the leukemic cells, an indication of an effective anti-leukemic agent.
# Check to see that there is adequate cell growth in the stock cultures. Use cells 48-72 hours after transfers are done.
# Weigh out the drugs at 50 times the desired final concentration and made serial dilutions.
# Make up the final medium using 500 mls McCoy's 5A medium, 15% fetal calf serum, 5 mls penicillin-streptomycin solution, and 5 mls antibiotic-antimycotic solution and let it stand at room temperature.
# Using sterile technique, add 0.1 ml of the drug dilutions to each tube.
# Add an appropriate quantity of cells to the prepared medium. After mixing, remove a 0.5 ml sample, place it in a vial containing […] of saline, and count it on the Coulter Counter. Multiply the count by 40 to compensate for the 40 fold dilution (0.5 ml into […] and record the inoculum.
# Add 5 mls of cell suspension to each tube. Swirl the bottle every 4 tubes to insure a more uniform distribution of cells.
# Tighten the caps and place in the CO2 incubator at 36°-38° for 96 hours. […]
Structure (SMILES),response of spleen cells to Con A versus placebo (spleen cells [1]),"subsequent response of the spleen cells, in vitro, to Con A stimulation (spleen cells [1])",augmentation of Con A stimulation (spleen cells [2]),solubility at increasing concentrations of DIP.PAcBA (Phase solubility studies),"Maximum Percent Change, Mitogen Induced (PHA) Human Lymph. Prolif. ([3]; 1.0-10) [%]","Maximum Percent Change, Mitogen Induced (PHA) Human Lymph. Prolif. ([3]; .01-1.0)",DIP.PAcBA potentiation of Anti-Leukemia activity (L-1210 cells; DIP.PAcBA salt vs parent compound),"Maximum Percent Change, Mitogen Induced (PHA) Human Lymph. Prolif. ([3]; 10-100) [%]","IC50 (L-1210 cells; Mus musculus, L1210, 96 h, 96 hours, text: μg/ml, read-out: I50 (concentration of drug inhibiting growth of L-1210)) [µg/mL]"
"CCCCCC[C@H]([C@H](C)O)n1cnc2c(=O)[nH]cnc21 (relative stereo) [NPT 15392, Erythro-9-(2-Hydroxy-3-Nonyl)Hypoxanthine]",No significant differences,increases the subsequent response of the spleen cells,marked ability to augment the Con A stimulation,increased solubility,–,–,–,–,–
CCCCCC[C@H]([C@H](C)O)n1cnc2c(=O)[nH]cnc21 (relative stereo) [NPT 15410],No significant differences,increases the subsequent response of the spleen cells,marked ability to augment the Con A stimulation,–,60,30-50%,Yes,–,–
CCCCCCC(CO)n1cnc2c(=O)[nH]cnc21 (centres unmarked) [NPT 15417],–,–,–,–,0,0%,–,-50,47
